Measurements from patent publication US12559464B2, “Quinazolinone dione compounds and uses thereof” (Edgewise Therapeutics, Inc., priority 2023, dated 2026).

Legend:
[1] = system: myosin ATPase, Rabbit Psoas myofibrils; experiment: Myofibril ATPase assay, rabbit psoas (skeletal) myofibrils; assay type: biochemical; settings: Rabbit Psoas Prep pCa 25 GEOM_MEAN; for Rabbit Psoas EC25 (Y75 value): concentration required to reduce myosin ATP-ase activity by 25%; for Rabbit Psoas Y125 value (marked #): concentration required to increase myosin ATP-ase activity by 25%
[2] = biological target: T1, myosin ATPase, Porcine Ventricle myofibrils (Sus scrofa, UniProt P79293); experiment: Myofibril ATPase assay, porcine ventricle myofibrils; assay type: biochemical, porcine (Yucatan minipigs); settings: concentration required to reduce myosin ATP-ase activity by 25%; Porcine Ventricle Prep pCa 25 GEOM_MEAN
T1 construct: Myofibrils from porcine cardiac muscle was isolated from the left ventricle of Yucatan minipigs; tissue Exemplar Genetics; host or cells: left ventricle of Yucatan minipigs, myofibrils
T1 sequence (P79293 whole entry): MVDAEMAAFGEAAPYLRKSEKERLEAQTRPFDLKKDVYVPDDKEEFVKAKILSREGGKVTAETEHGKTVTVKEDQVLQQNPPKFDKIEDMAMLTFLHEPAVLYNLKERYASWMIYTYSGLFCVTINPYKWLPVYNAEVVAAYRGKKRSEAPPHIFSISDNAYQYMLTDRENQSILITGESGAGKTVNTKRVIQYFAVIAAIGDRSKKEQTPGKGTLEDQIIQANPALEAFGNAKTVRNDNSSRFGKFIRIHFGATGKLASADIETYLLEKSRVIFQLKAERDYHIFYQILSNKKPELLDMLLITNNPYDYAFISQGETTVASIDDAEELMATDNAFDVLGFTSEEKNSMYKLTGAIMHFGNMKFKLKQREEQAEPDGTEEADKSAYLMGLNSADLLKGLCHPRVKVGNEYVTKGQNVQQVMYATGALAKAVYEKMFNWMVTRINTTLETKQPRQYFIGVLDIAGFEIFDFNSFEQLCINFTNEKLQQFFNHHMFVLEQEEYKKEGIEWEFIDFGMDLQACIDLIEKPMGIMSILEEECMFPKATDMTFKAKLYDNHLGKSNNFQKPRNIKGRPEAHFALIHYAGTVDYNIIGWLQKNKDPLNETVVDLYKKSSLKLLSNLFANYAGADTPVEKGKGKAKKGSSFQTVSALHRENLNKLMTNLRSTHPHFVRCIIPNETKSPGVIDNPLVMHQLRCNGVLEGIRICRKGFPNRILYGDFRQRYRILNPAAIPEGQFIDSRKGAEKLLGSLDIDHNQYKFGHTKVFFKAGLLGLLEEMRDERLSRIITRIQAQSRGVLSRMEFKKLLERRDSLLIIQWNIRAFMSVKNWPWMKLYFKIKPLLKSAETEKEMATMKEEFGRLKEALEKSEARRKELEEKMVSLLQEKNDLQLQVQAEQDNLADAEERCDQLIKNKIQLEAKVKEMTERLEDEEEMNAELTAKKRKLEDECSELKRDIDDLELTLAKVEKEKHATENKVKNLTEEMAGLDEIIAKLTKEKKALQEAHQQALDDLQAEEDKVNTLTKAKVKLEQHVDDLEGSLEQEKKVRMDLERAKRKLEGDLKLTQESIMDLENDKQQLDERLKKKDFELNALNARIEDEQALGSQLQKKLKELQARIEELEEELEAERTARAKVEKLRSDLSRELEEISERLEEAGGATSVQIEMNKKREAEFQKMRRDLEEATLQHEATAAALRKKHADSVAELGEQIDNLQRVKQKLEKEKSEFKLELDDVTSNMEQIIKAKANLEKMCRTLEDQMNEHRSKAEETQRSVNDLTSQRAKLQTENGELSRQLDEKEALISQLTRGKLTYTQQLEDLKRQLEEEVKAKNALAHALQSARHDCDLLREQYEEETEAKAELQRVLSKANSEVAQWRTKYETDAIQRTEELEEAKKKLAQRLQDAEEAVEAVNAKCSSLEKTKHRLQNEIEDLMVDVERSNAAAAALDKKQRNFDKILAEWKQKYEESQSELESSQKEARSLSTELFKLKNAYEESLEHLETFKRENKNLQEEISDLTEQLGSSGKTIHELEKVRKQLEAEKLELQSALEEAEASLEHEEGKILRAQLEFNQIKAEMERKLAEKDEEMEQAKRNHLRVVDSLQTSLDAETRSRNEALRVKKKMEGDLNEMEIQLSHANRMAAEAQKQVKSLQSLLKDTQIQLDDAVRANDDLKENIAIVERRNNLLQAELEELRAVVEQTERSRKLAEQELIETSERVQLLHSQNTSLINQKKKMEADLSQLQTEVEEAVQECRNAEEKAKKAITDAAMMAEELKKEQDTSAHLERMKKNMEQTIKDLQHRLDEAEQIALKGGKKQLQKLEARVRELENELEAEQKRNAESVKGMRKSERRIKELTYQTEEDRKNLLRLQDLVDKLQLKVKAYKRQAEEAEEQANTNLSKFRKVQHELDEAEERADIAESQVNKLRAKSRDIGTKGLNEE
Outline: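 Myofibrils from Yucatan minipig left ventricle; ADP production coupled via PK-LDH to NADH loss, read kinetically at 340 nm every 1.5–2 min for 75 min in PIPES/MgCl2 pH 7.0 buffer. Slopes normalized to vehicle and fit to 4-parameter logistic; values are concentrations giving 75% (inhibition) or 125% (activation) of vehicle activity.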

[3] = system: myosin ATPase, Porcine Atria myofibrils; experiment: Myofibril ATPase assay, porcine atria myofibrils; assay type: biochemical; settings: concentration required to reduce myosin ATP-ase activity by 25%; Porcine Atria Prep pCa 25 GEOM_MEAN

Row | SMILES | Rabbit Psoas EC25 (Y75 value) [1] | Porcine Ventricle EC25 (Y75 value) [2] | Porcine Atria EC25 (Y75 value) [3] | Rabbit Psoas Y125 value (marked #) [1]
1 | C[C@@H](NC(=O)C1(n2c(=O)[nH]c3ccc(F)c(F)c3c2=O)CC1)c1ncc(C#N)cc1F (single isomer, unassigned) [Compound 3011] | 4.77 µM | 13.07 µM | 0.42 µM | 
2 | C[C@H](NC(=O)C1(n2c(=O)[nH]c3ccc(F)c(F)c3c2=O)CC1)c1ncc(C#N)cc1F (single isomer, unassigned) [Compound 3013] | 0.40 µM | 1.04 µM | 0.19 µM | 
3 | C[C@@H](NC(=O)C1(n2c(=O)[nH]c3cccc(C#N)c3c2=O)CC1)c1ncc(C#N)cc1F (single isomer, unassigned) [Compound 3014] | 100.00 µM | 100.00 µM | 100.00 µM | 
4 | C[C@H](NC(=O)C1(n2c(=O)[nH]c3cccc(C#N)c3c2=O)CC1)c1ncc(C#N)cc1F (single isomer, unassigned) [Compound 3015] | 0.89 µM | 10.96 µM | 1.89 µM | 
5 | Cc1c(F)ccc2[nH]c(=O)n(CC(=O)N[C@H]3CCc4cc(C#N)cnc43)c(=O)c12 [Compound 10, (S)-N-(3-cyano-6,7-dihydro-5H-cyclopenta[b]pyridin-7-yl)-2-(6-fluoro-5-methyl-2,4-dioxo-1,4-dihydroquinazolin-3(2H)-yl)acetamide] | 100 µM | 100 µM | 100 µM | 
6 | Cc1nccc2[nH]c(=O)n(CC(=O)N[C@@H](C)c3ncc(C#N)cc3F)c(=O)c12 [Compound 20, (S)-N-(1-(5-cyano-3-fluoropyridin-2-yl)ethyl)-2-(5-methyl-2,4-dioxo-1,4-dihydropyrido[4,3-d]pyrimidin-3(2H)-yl)acetamide] | 0.799 µM | 7.141 µM | 2.095 µM | 
7 | C[C@H](NC(=O)[C@H](Cc1ccccc1)n1c(=O)[nH]c2cccc(O)c2c1=O)c1ccc(F)cc1F [Compound 33, (S)-N-((S)-1-(2,4-difluorophenyl)ethyl)-2-(5-hydroxy-2,4-dioxo-1,4-dihydroquinazolin-3(2H)-yl)-3-phenylpropanamide] |  | 100 µM | 100 µM | 51.2^# μM
8 | C[C@H](NC(=O)[C@@H](Cc1ccccc1)n1c(=O)[nH]c2cccc(O)c2c1=O)c1ccc(F)cc1F [Compound 34, (R)-N-((S)-1-(2,4-difluorophenyl)ethyl)-2-(5-hydroxy-2,4-dioxo-1,4-dihydroquinazolin-3(2H)-yl)-3-phenylpropanamide] |  | 45.37 µM | 48.85 µM | 0.85^#^ μM
9 | C[C@H](NC(=O)[C@@H](C)n1c(=O)[nH]c2ccc(F)c(F)c2c1=O)c1ccc(F)cc1F [Compound 37, (R)-2-(5,6-difluoro-2,4-dioxo-1,4-dihydroquinazolin-3(2H)-yl)-N-((S)-1-(2,4-difluorophenyl)ethyl)propanamide] | 0.412 µM | 17.77 µM | 0.658 µM | 
10 | C[C@H](NC(=O)[C@H](C)n1c(=O)[nH]c2ccc(F)c(F)c2c1=O)c1ccc(F)cc1F [Compound 38, (S)-2-(5,6-difluoro-2,4-dioxo-1,4-dihydroquinazolin-3(2H)-yl)-N-((S)-1-(2,4-difluorophenyl)ethyl)propanamide] | 0.422 µM | 3.995 µM | 0.185 µM | 
11 | C[C@H](NC(=O)Cn1c(=O)[nH]c2ccc(F)c(F)c2c1=O)c1ccc(F)cc1F [Compound 39, (S)-2-(5,6-difluoro-2,4-dioxo-1,4-dihydroquinazolin-3(2H)-yl)-N-(1-(2,4-difluorophenyl)ethyl)acetamide] | 0.055 µM | 0.3333 µM | 0.0536 µM | 
12 | C[C@H](NC(=O)[C@H](C)n1c(=O)[nH]c2ccc(F)cc2c1=O)c1ccc(F)cc1F [Compound 40, (S)-N-((S)-1-(2,4-difluorophenyl)ethyl)-2-(6-fluoro-2,4-dioxo-1,4-dihydroquinazolin-3(2H)-yl)propanamide] | 0.476 µM | 6.567 µM | 0.1074 µM | 
13 | C[C@H](NC(=O)[C@@H](C)n1c(=O)[nH]c2ccc(F)cc2c1=O)c1ccc(F)cc1F [Compound 41, (R)-N-((S)-1-(2,4-difluorophenyl)ethyl)-2-(6-fluoro-2,4-dioxo-1,4-dihydroquinazolin-3(2H)-yl)propanamide] | 0.828 µM | 28.36 µM | 1.375 µM | 
14 | C[C@H](NC(=O)C(C)(C)n1c(=O)[nH]c2ccccc2c1=O)c1ccc(F)cc1F [Compound 42, (S)-N-(1-(2,4-difluorophenyl)ethyl)-2-(2,4-dioxo-1,4-dihydroquinazolin-3(2H)-yl)-2-methylpropanamide] | 100 µM | 100 µM | 100 µM | 
15 | CN1CC(NC(=O)Cn2c(=O)[nH]c3ccccc3c2=O)c2c(F)cc(F)cc2C1=O (stereo not drawn) [Compound 43, N-(5,7-difluoro-2-methyl-1-oxo-1,2,3,4-tetrahydroisoquinolin-4-yl)-2-(2,4-dioxo-1,4-dihydroquinazolin-3(2H)-yl)acetamide] | 58.79 µM | 100 µM | 100 µM | 
16 | O=C(Cn1c(=O)[nH]c2ccccc2c1=O)NC1CNC(=O)c2cc(F)cc(F)c21 (stereo not drawn) [Compound 46, N-(5,7-difluoro-1-oxo-1,2,3,4-tetrahydroisoquinolin-4-yl)-2-(2,4-dioxo-1,4-dihydroquinazolin-3(2H)-yl)acetamide] | 100 µM | 100 µM | 100 µM | 
17 | CC(NC(=O)Cn1c(=O)[nH]c2ccccc2c1=O)c1ncc(F)cc1F (stereo not drawn) [Compound 47, N-(1-(3,5-difluoropyridin-2-yl)ethyl)-2-(2,4-dioxo-1,4-dihydroquinazolin-3(2H)-yl)acetamide] | 1.97 µM | 100 µM | 1.442 µM | 
18 | Cc1ccc2[nH]c(=O)n(CC(=O)N[C@@H](C)c3ccc(F)cc3F)c(=O)c2c1 [Compound 51, (S)-N-(1-(2,4-difluorophenyl)ethyl)-2-(6-methyl-2,4-dioxo-1,4-dihydroquinazolin-3(2H)-yl)acetamide] | 0.984 µM | 13.83 µM | 0.2427 µM | 
19 | C[C@H](NC(=O)Cn1c(=O)[nH]c2ccnc(O)c2c1=O)c1ccc(F)cc1F [Compound 59, (S)-N-(1-(2,4-difluorophenyl)ethyl)-2-(5-hydroxy-2,4-dioxo-1,4-dihydropyrido[4,3-d]pyrimidin-3(2H)-yl)acetamide] | 100 µM | 100 µM | 100 µM | 
20 | COc1nccc2[nH]c(=O)n(CC(=O)N[C@@H](C)c3ccc(F)cc3F)c(=O)c12 [Compound 65, (S)-N-(1-(2,4-difluorophenyl)ethyl)-2-(5-methoxy-2,4-dioxo-1,4-dihydropyrido[4,3-d]pyrimidin-3(2H)-yl)acetamide] | 8.499 µM | 100 µM | 3.241 µM | 
21 | COc1cccc2[nH]c(=O)n(CC(=O)N[C@@H](C)c3ccc(F)cc3F)c(=O)c12 [Compound 69, (S)-N-(1-(2,4-difluorophenyl)ethyl)-2-(5-methoxy-2,4-dioxo-1,4-dihydroquinazolin-3(2H)-yl)acetamide] | 1.147 µM | 100 µM | 21.1 µM | 
22 | CCC(NC(=O)Cn1c(=O)[nH]c2ccccc2c1=O)c1ccc(F)cc1F (stereo not drawn) [Compound 71, N-(1-(2,4-difluorophenyl)propyl)-2-(2,4-dioxo-1,4-dihydroquinazolin-3(2H)-yl)acetamide] | 3.86 µM | 53.2 µM | 12.67 µM | 
23 | C[C@H](NC(=O)Cn1c(=O)[nH]c2cccc(O)c2c1=O)c1ccc(F)cc1F [Compound 72, (S)-N-(1-(2,4-difluorophenyl)ethyl)-2-(5-hydroxy-2,4-dioxo-1,4-dihydroquinazolin-3(2H)-yl)acetamide] | 0.019 µM | 0.2524 µM | 0.1151 µM | 
24 | Cc1cccc2[nH]c(=O)n(CC(=O)N[C@@H](C)c3ccc(F)cc3F)c(=O)c12 [Compound 73, (S)-N-(1-(2,4-difluorophenyl)ethyl)-2-(5-methyl-2,4-dioxo-1,4-dihydroquinazolin-3(2H)-yl)acetamide] | 0.0495 µM | 0.707 µM | 0.1149 µM | 
25 | O=C(Cn1c(=O)[nH]c2ccccc2c1=O)NC(CO)c1ccc(F)cc1F (stereo not drawn) [Compound 87, N-(1-(2,4-difluorophenyl)-2-hydroxyethyl)-2-(2,4-dioxo-1,4-dihydroquinazolin-3(2H)-yl)acetamide] | 0.817 µM | 100 µM | 5.405 µM | 
